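Interpolation was linear, between the two tested concentrations surrounding the appropriate level; five concentrations were tested over 48 hours in 96-well plates. Abbreviation: GI50, concentration required for 50% inhibition of growth. TGI denotes the concentration required for complete inhibition of growth.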
How the values were obtained:
Assay in all cases: inhibition of tumour cell growth, NCI panel, 48 h; in the data active means GI50 below about 0.43 µM; inactive means the rest
[1] = test system: 786-0 renal
[2] = test system: A498 renal
[3] = test system: A549 NSCLC
[4] = test system: ACHN renal
[5] = test system: BT-549 breast
[6] = test system: CAKI-1 renal
[7] = test system: CCRF-CEM leukemia
[8] = test system: COLO 205 colon
[9] = test system: DU-145 prostate
[10] = test system: EKVX NSCLC
[11] = test system: HCC-2998 colon
[12] = test system: HCT-116 colon
[13] = test system: HCT-15 colon
[14] = test system: HL-60(TB) leukemia
[15] = test system: HOP-62 NSCLC
[16] = test system: HOP-92 NSCLC
[17] = test system: HS 578T breast
[18] = test system: HT29 colon
[19] = test system: IGROV1 ovarian
[20] = test system: K-562 leukemia
[21] = test system: KM12 colon
[22] = test system: LOX IMVI melanoma
[23] = test system: M14 melanoma
[24] = test system: MALME-3M melanoma
[25] = test system: MCF7 breast
[26] = test system: MDA-MB-231 breast
[27] = test system: MDA-MB-435
[28] = test system: MOLT-4 leukemia
[29] = test system: NCI-H226 lung
[30] = test system: NCI-H23 lung
[31] = test system: NCI-H460 lung
[32] = test system: NCI-H522 lung
[33] = test system: NCI/ADR-RES ovarian
[34] = test system: OVCAR-3 ovarian
[35] = test system: OVCAR-4 ovarian
[36] = test system: OVCAR-5 ovarian
[37] = test system: OVCAR-8 ovarian
[38] = test system: PC-3 prostate
[39] = test system: RPMI-8226 leukemia
[40] = test system: RXF 393 renal
[41] = test system: SF-268 CNS
[42] = test system: SF-295 CNS
[43] = test system: SF-539 CNS
[44] = test system: SK-MEL-2 melanoma
[45] = test system: SK-MEL-28 melanoma
[46] = test system: SK-MEL-5 melanoma
[47] = test system: SK-OV-3 ovarian
[48] = test system: SN12C renal
[49] = test system: SNB-19 CNS
[50] = test system: SNB-75 CNS
[51] = test system: SW-620 colon
[52] = test system: T-47D breast
[53] = test system: TK-10 renal
[54] = test system: U251 CNS
[55] = test system: UACC-257 melanoma
[56] = test system: UACC-62 melanoma
[57] = test system: UO-31 renal

COc1ccc(C2NN=C3c4ccccc4CCC32)cc1 (centres undefined)
inactive: GI50 [1] 53.1 µM | GI50 [2] 19.4 µM | GI50 [3] 19.7 µM | GI50 [4] 24.5 µM | GI50 [5] 5.29 µM | GI50 [6] 9.38 µM | GI50 [7] 4.64 µM | GI50 [8] 7.8 µM | GI50 [9] 19.2 µM | GI50 [10] 1.4 µM | GI50 [11] 12.4 µM | GI50 [12] 6.85 µM | GI50 [13] 3.7 µM | GI50 [14] 1.92 µM | GI50 [15] 95.3 µM | GI50 [16] 19.4 µM | GI50 [17] 15 µM | GI50 [18] 2.26 µM | GI50 [19] 2.7 µM | GI50 [20] 2.87 µM | GI50 [21] 3.99 µM | GI50 [22] 8.25 µM | GI50 [23] 6.23 µM | GI50 [24] 5.22 µM | GI50 [25] 2.56 µM | GI50 [26] 17.8 µM | GI50 [27] 1.57 µM | GI50 [28] 4.04 µM | GI50 [29] > 100 µM | GI50 [30] 12.6 µM | GI50 [31] 4.86 µM | GI50 [32] 3.21 µM | GI50 [33] 3.99 µM | GI50 [34] 3.38 µM | GI50 [35] 3.31 µM | GI50 [36] 18.4 µM | GI50 [37] 22.1 µM | GI50 [38] 15.8 µM | GI50 [39] 5.36 µM | GI50 [40] 23.1 µM | GI50 [41] 15.7 µM | GI50 [42] 2.48 µM | GI50 [43] 6.73 µM | GI50 [44] 28.5 µM | GI50 [45] 8.26 µM | GI50 [46] 3.62 µM | GI50 [47] 20.4 µM | GI50 [48] 15.4 µM | GI50 [49] 14.5 µM | GI50 [51] 9.19 µM | GI50 [52] 6.12 µM | GI50 [53] 16.9 µM | GI50 [54] 5.92 µM | GI50 [55] 19.4 µM | GI50 [56] 8.34 µM | GI50 [57] 24.1 µM
14.9 µM: TGI [34]
33.5 µM: TGI [22]
30.2 µM: TGI [12]
5.27 µM: TGI [14]
12.5 µM: TGI [18]
95.4 µM: TGI [5]
22.5 µM: TGI [8]
79.5 µM: TGI [48]
13.2 µM: TGI [42]
76.6 µM: TGI [3]
79.4 µM: TGI [55]
11.5 µM: TGI [25]
85.4 µM: TGI [39]
> 100 µM: TGI [1] | TGI [4] | TGI [7] | TGI [11] | TGI [13] | TGI [15] | TGI [16] | TGI [17] | TGI [20] | TGI [21] | TGI [23] | TGI [26] | TGI [28] | TGI [29] | TGI [36] | TGI [37] | TGI [38] | TGI [40] | TGI [41] | TGI [44] | TGI [47] | TGI [49] | TGI [51] | TGI [54] | TGI [56] | TGI [57]
24.6 µM: TGI [35]
28.8 µM: TGI [43]
21.4 µM: TGI [6] | TGI [19]
76.1 µM: TGI [45]
17.7 µM: TGI [32]
38.4 µM: TGI [24]
65 µM: TGI [2]
38.3 µM: TGI [33]
72.6 µM: TGI [9]
71.8 µM: TGI [53]
17.1 µM: TGI [46]
3.62 µM: TGI [27]
47.3 µM: TGI [52]
29.3 µM: TGI [10]
71.3 µM: TGI [31]
active: GI50 [50] 0.284 µM
5.58 µM: TGI [50]
93.3 µM: TGI [30]
